Here are results for 8 compounds from ChEMBL document CHEMBL2321780, “Fluorinated quinazolinones as potential radiotracers for imaging kinesin spindle protein expression” (2013).

Activity calls are given as the source filed them. The rule behind the calls is not given here.

A word on the GI50: it is the concentration at which growth is held to half of that of the control.

In experiment [1] the test system is DU-145. Put plainly: Cell cycle arrest in human DU145 cells assessed as accumulation in G0/G1 phase at 100 nM after 24 hrs by FACS analysis (reference value: 53.2%). The experiment is classed as functional. For orientation: A flow cytometer gives signals particle by particle.
In experiment [2] the test system is MCF7. Kind of experiment: Cell cycle arrest in human MCF7 cells assessed as accumulation in G0/G1 phase at 100 nM after 24 hrs by FACS analysis (reference value: 48.2%). In kind it is functional.
The subject of experiment [3] is MCF7. Put plainly: Nonspecific cytotoxicity against human MCF7 cells after 44 hrs by MTT assay. The experiment is classed as functional. Particulars: MCF7, 44 h. A general note: Formazan colour is commonly taken as a measure of viable cells.
In experiment [4] the test system is DU-145. Put plainly: Cell cycle arrest in human DU145 cells assessed as accumulation in G2/M phase at 100 nM after 24 hrs by FACS analysis (reference value: 31%). The experiment is classed as functional.
Experiment [5] relates to SK-OV-3. Kind of experiment: Cell cycle arrest in human SKOV3 cells assessed as accumulation in G0/G1 phase at 100 nM after 24 hrs by FACS analysis (reference value: 51.1%). The experiment is classed as functional.
Experiment [6] relates to MCF7. Kind of experiment: Cell cycle arrest in human MCF7 cells assessed as accumulation in S phase at 100 nM after 24 hrs by FACS analysis (reference value: 19.6%). In kind it is functional.
Experiment [7] concerns SK-OV-3. Put plainly: Cell cycle arrest in human SKOV3 cells assessed as accumulation in S phase at 100 nM after 24 hrs by FACS analysis (reference value: 18.4%). In kind it is functional.
Experiment [8] relates to PC-3. Kind of experiment: Cell cycle arrest in human PC3 cells assessed as accumulation in G2/M phase at 100 nM after 24 hrs by FACS analysis (reference value: 26.3%). In kind it is functional.
Experiment [9] has as its system DU-145. Put plainly: Cell cycle arrest in human DU145 cells assessed as accumulation in S phase at 100 nM after 24 hrs by FACS analysis (reference value: 4.5%). The experiment is classed as functional.
Experiment [10] has as its system PC-3. Kind of experiment: Cell cycle arrest in human PC3 cells assessed as accumulation in S phase at 100 nM after 24 hrs by FACS analysis (reference value: 14.2%). In kind it is functional.
Experiment [11] concerns the target T1, Kinesin-1 heavy chain (Homo sapiens) (UniProt P33176).
T1 sequence (whole entry): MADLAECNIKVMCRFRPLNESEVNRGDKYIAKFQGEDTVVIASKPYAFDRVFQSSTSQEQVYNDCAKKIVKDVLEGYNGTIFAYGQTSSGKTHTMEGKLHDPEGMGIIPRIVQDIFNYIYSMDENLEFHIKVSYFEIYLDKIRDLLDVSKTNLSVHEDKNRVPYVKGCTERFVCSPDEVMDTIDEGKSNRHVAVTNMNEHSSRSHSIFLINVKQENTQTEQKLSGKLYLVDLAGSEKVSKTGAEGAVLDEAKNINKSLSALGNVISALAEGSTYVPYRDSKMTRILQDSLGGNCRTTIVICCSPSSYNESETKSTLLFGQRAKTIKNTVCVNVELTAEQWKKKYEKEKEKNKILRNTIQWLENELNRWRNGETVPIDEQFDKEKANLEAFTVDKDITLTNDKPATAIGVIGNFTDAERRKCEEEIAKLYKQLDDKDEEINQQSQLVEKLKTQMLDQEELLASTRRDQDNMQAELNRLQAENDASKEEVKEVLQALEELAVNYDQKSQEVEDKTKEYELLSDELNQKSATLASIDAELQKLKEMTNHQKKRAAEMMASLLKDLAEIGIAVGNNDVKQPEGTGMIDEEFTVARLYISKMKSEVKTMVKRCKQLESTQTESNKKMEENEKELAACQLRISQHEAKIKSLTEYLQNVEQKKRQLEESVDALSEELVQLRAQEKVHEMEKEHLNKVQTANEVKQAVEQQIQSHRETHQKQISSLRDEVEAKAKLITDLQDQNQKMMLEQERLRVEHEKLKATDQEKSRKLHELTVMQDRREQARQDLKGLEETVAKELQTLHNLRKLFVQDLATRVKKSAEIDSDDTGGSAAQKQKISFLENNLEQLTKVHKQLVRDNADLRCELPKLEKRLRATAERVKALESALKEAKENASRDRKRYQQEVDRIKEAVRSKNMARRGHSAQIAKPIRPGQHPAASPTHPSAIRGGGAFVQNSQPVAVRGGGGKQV
Kind of experiment: Inhibition of KNH (unknown origin)-mediated ATP hydrolysis assessed as residual activity at 1 uM after 10 to 20 mins by spectrophotometric analysis.

Experiment [12] has as its system PC-3. Put plainly: Cell cycle arrest in human PC3 cells assessed as accumulation in G0/G1 phase at 100 nM after 24 hrs by FACS analysis (reference value: 32.6%). The experiment is classed as functional.
The test system of experiment [13] is SK-OV-3. Kind of experiment: Cell cycle arrest in human SKOV3 cells assessed as accumulation in G2/M phase at 100 nM after 24 hrs by FACS analysis (reference value: 21.8%). The experiment is classed as functional.
The subject of experiment [14] is SK-OV-3. Put plainly: Cell cycle arrest in human SKOV3 cells assessed as phospho-histone3 level at 100 nM after 24 hrs by immunostaining analysis. In kind it is functional.
Experiment [15] deals with MCF7. Put plainly: Cell cycle arrest in human MCF7 cells assessed as accumulation in G2/M phase at 100 nM after 24 hrs by FACS analysis (reference value: 22.4%). The experiment is classed as functional.
The subject of experiment [16] is PC-3. Put plainly: Cytotoxicity against human PC3 cells assessed as inhibition of KSP-mediated cell cycle progression after 44 hrs by MTT assay. In kind it is functional. Particulars: PC-3, 44 h.
Experiment [17] has as its system DU-145. Kind of experiment: Cytotoxicity against human DU145 cells assessed as inhibition of KSP-mediated cell cycle progression after 44 hrs by MTT assay. In kind it is functional. Particulars: DU-145, 44 h.
Experiment [18] deals with SK-OV-3. Kind of experiment: Cell cycle arrest in human SKOV3 cells assessed as monoaster phenotype at 100 nM after 22 hrs by confocal microscopic analysis. The experiment is classed as functional, cell-based.
Experiment [19] deals with SK-OV-3. Put plainly: Cytotoxicity against human SKOV3 cells assessed as inhibition of KSP-mediated cell cycle progression after 44 hrs by MTT assay. In kind it is functional. Particulars: SK-OV-3, 44 h.
In experiment [20] the test system is MCF7. Kind of experiment: Cytotoxicity against human MCF7 cells assessed as inhibition of KSP-mediated cell cycle progression after 44 hrs by MTT assay. Particulars: MCF7, 44 h. The experiment is classed as functional.
The subject of experiment [21] is SK-OV-3. Put plainly: Cell cycle arrest in human SKOV3 cells assessed as absence of normal mitotic stages at 100 nM after 24 hrs by confocal microscopic analysis. In kind it is functional, cell-based.
For experiment [22], the system named is SK-OV-3. Kind of experiment: Cytotoxicity against human SKOV3 cells assessed as inhibition of KSP-mediated cell cycle progression after 44 hrs by BrdU incorporation assay. In kind it is functional. Particulars: SK-OV-3, 44 h. (Incorporation of labelled thymidine or its analogues reports DNA synthesis.)
The subject of experiment [23] is SK-OV-3. Put plainly: Cell cycle arrest in human SKOV3 cells assessed as monoaster phenotype at 100 nM after 24 hrs by confocal microscopic analysis. The experiment is classed as functional, cell-based.
Experiment [24] concerns SK-OV-3. Put plainly: Nonspecific cytotoxicity against human SKOV3 cells after 44 hrs by BrdU incorporation assay. In kind it is functional. Particulars: SK-OV-3, 44 h.

For `CC(C)[C@@H](c1nc2cc(Cl)ccc2c(=O)n1Cc1ccccc1)N(CCCN)C(=O)c1ccc(F)cc1`, the Activity in the experiment on DU-145 [1] was found to be 52.9%; with MCF7 [2] it was 51.3%; in the experiment on DU-145 [4] it was 27.7%; with SK-OV-3 [5], 51.9%; in the experiment on MCF7 [6], 15.2%; in the experiment with SK-OV-3 [7], 16.2%. In addition, the Activity in the experiment on PC-3 [8] came to 32.9%; in the experiment on DU-145 [9], 9.5%; in the experiment on PC-3 [10] it was 24.2%; in experiment [11], 99.2%; with PC-3 [12], 31%; in the experiment on SK-OV-3 [13] it was 22.5%. In addition, the Activity in the experiment on SK-OV-3 [14] is 2.6%; in the experiment with MCF7 [15], 22.8%. For the same compound, the GI50 with MCF7 [3] amounted to 1100 nM.
In turn, `CC(C)[C@@H](c1nc2cc(Cl)ccc2c(=O)n1Cc1ccccc1)N(CCCN)C(=O)c1cccc(F)c1` came in with a GI50 in the experiment with MCF7 [3] of 630 nM. Besides, the Activity in experiment [11] is 98.9%.
On to `CC(C)[C@H](c1nc2cc(Cl)ccc2c(=O)n1Cc1ccccc1)N(CCCN)C(=O)c1ccccc1F`, for which the GI50 amounted to 3000 nM with MCF7 [3]; 7.8 nM in the experiment on PC-3 [16]; 10.7 nM in the experiment on DU-145 [17]; 34.8 nM in the experiment with SK-OV-3 [19]; 4.2 nM with MCF7 [20]. In addition, the result in the experiment on SK-OV-3 [18] was Active. In [11], the Activity was determined as 97.2%.
`Cc1ccc(C(=O)N(CCCN)[C@H](c2nc3cc(Cl)ccc3c(=O)n2Cc2ccccc2)C(C)C)cc1`: the Activity stood at 53.7% in the experiment with DU-145 [1]; 49.7% in the experiment on MCF7 [2]; 24.5% in the experiment on DU-145 [4]; 49.8% in the experiment with SK-OV-3 [5]; 17.6% in the experiment on MCF7 [6]; 16.6% with SK-OV-3 [7]. Also, the Activity stood at 25% with PC-3 [8]; 10.3% with DU-145 [9]; 30% with PC-3 [10]; 96.8% in experiment [11]; 34.4% in the experiment on PC-3 [12]; 14.5% with SK-OV-3 [13]. Also, the Activity in the experiment with MCF7 [15] is listed as 21.2%.
`Cc1ccc(C(=O)N(CCCN)[C@@H](c2nc3cc(Cl)ccc3c(=O)n2Cc2ccccc2)C(C)C)cc1` [ISPINESIB]: the Activity was found to be 24.8% in the experiment on DU-145 [1]; 22.1% in the experiment on MCF7 [2]; 49.8% with DU-145 [4]; 3.8% in the experiment on SK-OV-3 [5]; 10.6% in the experiment on MCF7 [6]; 13.6% with SK-OV-3 [7]. Moreover, the Activity was 60.9% with PC-3 [8]; 10.8% with DU-145 [9]; 10.1% with PC-3 [10]; 102% in experiment [11]; 13.8% with PC-3 [12]; 51.3% with SK-OV-3 [13]. Besides, in the experiment on MCF7 [15], the Activity was 57.2%.
As to `CC(C)[C@H](c1nc2cc(Cl)ccc2c(=O)n1Cc1ccccc1)N(CCCN)C(=O)c1ccc(F)cc1`, the Activity came out at 25.1% with MCF7 [2]; 3.5% with SK-OV-3 [5]; 12% with MCF7 [6]; 13.8% with SK-OV-3 [7]; 63.6% with PC-3 [8]; 11.1% in the experiment with PC-3 [10]. In addition, the Activity in experiment [11] turned out to be 97.1%; with PC-3 [12], 12%; in the experiment on SK-OV-3 [13], 58.5%; in the experiment with SK-OV-3 [14], 58.8%; in the experiment on MCF7 [15] it was 53.2%. For the same compound, the GI50 with MCF7 [3] was found to be 2500 nM; in the experiment on PC-3 [16], 0.5 nM; in the experiment with DU-145 [17] it was 0.19 nM; in the experiment on MCF7 [20] it was 1 nM; with SK-OV-3 [22], 0.01 nM; with SK-OV-3 [24] it was 61000 nM. Further, the outcome in the experiment on SK-OV-3 [21], with SK-OV-3 [18] and in the experiment with SK-OV-3 [23] was Active.
For `CC(C)[C@@H](c1nc2cc(Cl)ccc2c(=O)n1Cc1ccccc1)N(CCCN)C(=O)c1ccccc1F`, in the experiment with MCF7 [3], growth was halved (GI50) at 2000 nM. Besides, in experiment [11], the Activity was 97.9%.
In the case of `CC(C)C(c1nc2cc(Cl)ccc2c(=O)n1Cc1ccccc1)N(CCCN)C(=O)c1cccc(F)c1` (racemic), the GI50 came out at 2900 nM in the experiment on MCF7 [3]; 17 nM with PC-3 [16]; 4 nM in the experiment on DU-145 [17]; 15.6 nM in the experiment with SK-OV-3 [19]; 5.1 nM with MCF7 [20]. The Activity in experiment [11] amounted to 99.1%.
